The values below come from PubChem BioAssay (NCI).

Some test systems named below: RPMI-8226 leukemia; NCI-H460 lung; LOX IMVI melanoma; CCRF-CEM leukemia; MDA-MB-231 breast; EKVX NSCLC; BT-549 breast; OVCAR-8 ovarian; NCI-H23 lung; NCI/ADR-RES ovarian; ACHN renal; HCT-116 colon; HOP-92 NSCLC; SN12C renal; SK-OV-3 ovarian; U251 CNS; SNB-75 CNS.
Common to all, as to assay: growth of human tumour cells (NCI), 48 h

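Cells were grown in 96-well plates and exposed to each compound for 48 hours at five concentrations; endpoints were interpolated linearly between bracketing concentrations, or set to the highest concentration if not reached. TGI denotes the concentration required for complete inhibition of growth.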

With `C=C1[C@H](OC(=O)C(C)C)[C@@H](OC(C)=O)[C@@H](OC(C)=O)C(C)(C)[C@@H]2O[C@H]2[C@@H](C)C(=O)[C@@]2(OC(C)=O)C[C@@](C)(OC(C)=O)[C@H](OC(C)=O)[C@@H]2[C@H]1OC(C)=O`, the TGI in the experiment with RPMI-8226 leukemia, with NCI-H460 lung, in the experiment on LOX IMVI melanoma, in the experiment with CCRF-CEM leukemia, with MDA-MB-231 breast and in the experiment with EKVX NSCLC was more than 100 µM throughout. Further, the TGI with BT-549 breast, in the experiment with OVCAR-8 ovarian, in the experiment with NCI-H23 lung, with NCI/ADR-RES ovarian, with ACHN renal and in the experiment with HCT-116 colon was more than 100 µM each time. Further, the TGI in the experiment with HOP-92 NSCLC, in the experiment on SN12C renal, in the experiment on SK-OV-3 ovarian and with U251 CNS was more than 100 µM in each case.

Consider `CC1=CC=C2c3ccccc3C=CN2C(=O)C1`, for which the TGI in the experiment on RPMI-8226 leukemia, in the experiment on NCI-H460 lung, with LOX IMVI melanoma, with CCRF-CEM leukemia, in the experiment on MDA-MB-231 breast and with EKVX NSCLC was more than 100 µM in each case. The TGI in the experiment on SNB-75 CNS is more than 100 µM; with BT-549 breast, 56.3 µM; with OVCAR-8 ovarian, more than 100 µM; in the experiment on NCI-H23 lung, more than 100 µM; with NCI/ADR-RES ovarian, more than 100 µM; in the experiment with ACHN renal it was more than 100 µM. The TGI with HCT-116 colon, in the experiment with SN12C renal, in the experiment on SK-OV-3 ovarian and with U251 CNS was more than 100 µM throughout.

`Cc1c(C#N)c(N)[nH]c(=S)c1C#N`: the TGI in the experiment on RPMI-8226 leukemia, in the experiment with NCI-H460 lung, in the experiment on LOX IMVI melanoma, in the experiment with CCRF-CEM leukemia, with MDA-MB-231 breast and in the experiment on EKVX NSCLC was more than 100 µM in each case. In addition, the TGI in the experiment on SNB-75 CNS, in the experiment on BT-549 breast, in the experiment on OVCAR-8 ovarian, in the experiment on NCI-H23 lung, with ACHN renal and in the experiment with HCT-116 colon was more than 100 µM each time. Also, the TGI with SN12C renal and with U251 CNS was more than 100 µM throughout.

Take `COc1cccc(C(=O)Nc2c3ccccc3nc3ccccc23)c1OC`: the TGI with RPMI-8226 leukemia, in the experiment on NCI-H460 lung, in the experiment with LOX IMVI melanoma, with CCRF-CEM leukemia, in the experiment with MDA-MB-231 breast and in the experiment with EKVX NSCLC was more than 100 µM throughout. Moreover, the TGI in the experiment on SNB-75 CNS was 71 µM; in the experiment with BT-549 breast, more than 100 µM; in the experiment with OVCAR-8 ovarian, more than 100 µM; with NCI-H23 lung, more than 100 µM; in the experiment on NCI/ADR-RES ovarian it was more than 100 µM; with ACHN renal, more than 100 µM. The TGI in the experiment on HCT-116 colon, in the experiment with SN12C renal, in the experiment with SK-OV-3 ovarian and in the experiment with U251 CNS was more than 100 µM in each case.

On to `Cc1nnc2sc(Cl)nn12`, for which the TGI in the experiment with RPMI-8226 leukemia was more than 100 µM; in the experiment on NCI-H460 lung it was 37.4 µM; with LOX IMVI melanoma, 28.5 µM; in the experiment on CCRF-CEM leukemia it was 26.4 µM; in the experiment on MDA-MB-231 breast, 54.4 µM; in the experiment on EKVX NSCLC, 43.9 µM. The TGI was more than 100 µM with SNB-75 CNS; 46.7 µM in the experiment on BT-549 breast; more than 100 µM in the experiment on OVCAR-8 ovarian; 34.8 µM in the experiment with NCI-H23 lung; more than 100 µM in the experiment on NCI/ADR-RES ovarian; 54.8 µM in the experiment on ACHN renal. Moreover, the TGI in the experiment on HCT-116 colon was 26.2 µM; with SN12C renal, more than 100 µM; in the experiment on SK-OV-3 ovarian, 31 µM; with U251 CNS, 31.4 µM.

`Cc1cc(N)ccc1N=Nc1ccc(S(=O)(=O)CCOS(=O)(=O)O)cc1`: the TGI was more than 45.4 µM in the experiment with RPMI-8226 leukemia; 12.2 µM in the experiment with NCI-H460 lung; 2.97 µM in the experiment with LOX IMVI melanoma; more than 100 µM in the experiment with CCRF-CEM leukemia; more than 53 µM in the experiment with EKVX NSCLC; 19.8 µM with SNB-75 CNS. For the same compound, the TGI with BT-549 breast is 14.6 µM; in the experiment with OVCAR-8 ovarian it was 5.89 µM; with NCI-H23 lung, 24.5 µM; in the experiment with NCI/ADR-RES ovarian, more than 100 µM; in the experiment with ACHN renal, 14.4 µM; in the experiment with HCT-116 colon, 12.6 µM. Also, the results for the TGI in the experiment with HOP-92 NSCLC, in the experiment with SN12C renal and with U251 CNS were 19.5 µM, 11.1 µM and 13.1 µM, respectively.

Regarding `Cc1n[n+](CC(=O)c2ccccc2)c2sc(N)nn12`, the TGI in the experiment with RPMI-8226 leukemia, with NCI-H460 lung, in the experiment with LOX IMVI melanoma, in the experiment on CCRF-CEM leukemia, with MDA-MB-231 breast and in the experiment on EKVX NSCLC was more than 100 µM throughout. In addition, the TGI in the experiment on SNB-75 CNS, in the experiment on BT-549 breast, in the experiment on OVCAR-8 ovarian, with NCI-H23 lung, in the experiment on NCI/ADR-RES ovarian and in the experiment on ACHN renal was more than 100 µM in each case. Further, the TGI in the experiment with HCT-116 colon, with SN12C renal, with SK-OV-3 ovarian and with U251 CNS was more than 100 µM each time.

Turning to `Cc1cc2nc3c(C#N)c(-c4ccccc4)/c(=C\Nc4ccc(Cl)cc4)c(=O)n3c2cc1C`, the TGI in the experiment with RPMI-8226 leukemia, in the experiment with NCI-H460 lung, in the experiment with LOX IMVI melanoma, with CCRF-CEM leukemia, in the experiment with MDA-MB-231 breast and in the experiment with EKVX NSCLC was more than 100 µM throughout. The TGI with SNB-75 CNS, with BT-549 breast, in the experiment with OVCAR-8 ovarian, with NCI-H23 lung, in the experiment on NCI/ADR-RES ovarian and with ACHN renal was more than 100 µM each time. The TGI in the experiment on HCT-116 colon, in the experiment on SN12C renal, in the experiment with SK-OV-3 ovarian and with U251 CNS was more than 100 µM each time.

For the compound `O=C1CCCC2=C1CC1=C(CCCC1=O)N2c1ccccc1C(=O)O`, the TGI with RPMI-8226 leukemia, with NCI-H460 lung, in the experiment on LOX IMVI melanoma, with CCRF-CEM leukemia, with EKVX NSCLC and in the experiment with SNB-75 CNS was more than 100 µM each time. Further, the TGI in the experiment on BT-549 breast, in the experiment on OVCAR-8 ovarian, in the experiment on NCI-H23 lung, in the experiment on NCI/ADR-RES ovarian, in the experiment with ACHN renal and in the experiment on HOP-92 NSCLC was more than 100 µM throughout. Moreover, the TGI in the experiment with SN12C renal, in the experiment with SK-OV-3 ovarian and in the experiment on U251 CNS was more than 100 µM throughout.
